# In publication PMC5384777, “Three new C-27-carboxylated-lupane-triterpenoid derivatives from Potentilla discolor Bunge and their in vitro antitumor activities” (PLoS ONE, 2017):
# Values joined by “and” are separate entries in the source; they are usually repeats but may differ in a detail not shown here. Equal entries are not always repeated. Where two headings read alike, the source gives them in different places.
# Tests used:
# HepG-2 = assay: CCK-8 cytotoxicity assay, HepG-2; format: cell-based, human; conditions: for IC50: Homo sapiens, read-out: Cytotoxicity (IC50) HepG-2
# Method: (§1) The cytotoxic effects of Compounds 1–3 were estimated in vitro against HepG-2, MCF-7 and T-84 tumor cell lines by Cell Counting Kit-8 assay. Briefly, the cells were seeded into 96-well plates in triplicate at an initial number of 5,000 cells per well and cultured at 37°C, 5% CO2 for 24h, then treated with 0, 15, 20, 25, 30 μM of samples for another 24h. Ten microliters of the kit reagent was added to each well, and 2 h after all plates were scanned by a microplate reader (Thermo Fisher Scientific) at 450 nm. Cell cytotoxicity was calculated on the basis of absorbency.
# MCF-7 = assay: CCK-8 cytotoxicity assay, MCF-7; format: cell-based; conditions: Homo sapiens, read-out: Cytotoxicity (IC50) MCF-7
# Method: as §1
# T-84 = assay: CCK-8 cytotoxicity assay, T-84; format: cell-based; conditions: Homo sapiens, read-out: Cytotoxicity (IC50) T-84
# Method: as §1
# in vitro = format: cell-based; conditions: human
# Method: as §1
# HepG-2 cells [1] = assay: Annexin V-FITC/propidium iodide apoptosis analysis; format: cell-based, human; conditions: 24 h
# Method: The method for apoptosis analysis referred to the literature. Apoptosis was discriminated with the annexin V-FITC/propidium iodide test. Cells were seeded at 3 × 10^5/well in 10% FBS-DMEM into 6-well plates, and treated with Compound 1 with various concentrations. The cells were washed twice with cold Phosphate Buffered Saline (PBS) and then resuspended in 1 × Binding Buffer (0.1 M Hepes/NaOH (pH 7.4), 1.4 M NaCl, 25 mM CaCl2) at a concentration of 1 × 10^6 cells/mL. 100 μL of the solution (1 × 10^5 cells) was transferred to a 5 mL culture tube, and 5 μL of FITC Annexin V (BD, Pharmingen) and 5 μL of propidium iodide (PI) were added to each tube. The cells were gently vortexed and incubated at 25°C for 15 min in the dark. Then 200 μL of PBS was added to each tube. Analysis was performed with the system software (Cell Quest; BD Biosciences). The percentage of cells positive for PI and/or Annexin V-FITC was reported inside the quadrants. Lower left quadrant, viable cells (annexin V-/PI-); lower right quadrant, early apoptotic cells (annexin V+/PI-); upper right quadrant, late apoptotic cells (annexin V+/PI+); upper left quadrant, necrotic cells (annexin V-/PI+).
# HepG-2 cells [2] = assay: Intracellular ROS assay (DCFH-DA); format: cell-based, human; conditions: 24 h, control 10.6%
# Method: HepG-2 cells were seeded into 6-well plates for 24 h and subjected to various treatments. Then, the cells were cultured in a […] medium solution containing […] DCFH-DA (Beyotime, Haimen, China) at 37°C for 30 min in dark, and then with 3 times PBS washes. Cellular fluorescence was quantified under Nikon ECLIPSETE2000-S fluorescence microscope at 485 nm excitation and 538 nm emission.
# HepG-2 cells [3] = assay: Mitochondrial membrane potential (JC-1) staining; format: cell-based, human; conditions: 15 μM, 24 h
# cytochrome c = assay: Western blot, cytochrome c; format: cell-based, human; conditions: HepG-2, 0, 15 and 30 μM, 24 h
# Method: (§2) HepG-2 cells were collected after treatments with Compound 1 (0, 15 and 30 μM) for 24 h and then lysed in ice-cold RIPA buffer (1×PBS, 1% NP-40, 0.5% sodium deoxycholate and 0.1% SDS) which containing 100 μg/mL PMSF, 5 μg/mL Aprotinin, 5 μg/mL Leupeptin, 5 μg/mL Pepstatin and 100 μg/mL NaF. After centrifugation at 12,000 rpm for 10 min, the protein in the supernatant was quantified by the Bradford method using Multimode varioscan instrument (Thermo Fischer Scientifics). 30 μg protein per lane was applied in 12% SDS polyacrylamide gel. After electrophoresis, the protein was transferred to a polyvinylidine difluoride (PVDF) membrane (Amersham Biosciences). The membrane was blocked in TBST containing 5% blocking powder (Santacruz) at room temperature for 2 h. The membrane was washed with TBST for 5 min, and primary antibody (Bax, Bcl-2, cytochrome c, caspase-9, -3) was added and incubated at 4°C overnight (O/N). After three washes in TBST, the membrane was cultivated with corresponding horseradish peroxidase-labeled secondary antibody (1:20000) (Santa Cruz) at room temperature for 1 h. Membranes were rinsed with TBST for three times, 15 min each, and the protein blots were visualized with chemiluminescence reagent (Thermo Fischer Scientifics Ltd.). The X-ray films were developed with developer and fixed with fixer solution.
# Bax = assay: Western blot, Bax; format: cell-based, human; conditions: HepG-2, 15 and 30 μM, 24 h, compared with control
# Method: as §2
# Bcl-2 = assay: Western blot, Bcl-2; format: cell-based, human; conditions: HepG-2, 15 and 30 μM, 24 h, compared with control
# Method: as §2
# caspase-9 = assay: Western blot, caspase-9; format: cell-based, human; conditions: HepG-2, 15 and 30 μM, 24 h
# Method: as §2
# caspase-3 = assay: Western blot, caspase-3; format: cell-based, human; conditions: HepG-2, 15 and 30 μM, 24 h
# Method: as §2
# HepG-2 cells [4] = assay: Hoechst 33258 staining; format: cell-based, human; conditions: 15 and 30 μM, 24 h
# Method: HepG-2 cells grown on a sterile cover slip in 6-well plates were treated with Compound 1 for 24 h. The culture medium containing Compound was removed, and the cells were fixed in 4% paraformaldehyde for 10 min. After two PBS washes, the cells were stained with 0.5 mL of Hoechst 33258 (Beyotime, Haimen, China) for 5 min and again two PBS washes. The stained nuclei were viewed using a Nikon ECLIPSETE2000-S fluorescence microscope (OLYMPUS Co., Japan) under 350 nm excitation and 460 nm emissions.
# HepG-2 cells [5] = assay: AO/EB staining; format: cell-based, human; conditions: 15 and 30 μM, 24 h
# Method: HepG-2 cells were seeded on a sterile cover slip in 6-well tissue culture plates at a concentration of 5 ×10^4 cell/mL in a volume of 2 mL. Following incubation, the medium was removed and replaced with fresh medium plus 10% fetal bovine serum and supplemented with concentrations of Compound 1 for 24 h. After the treatment period, the cover slip with monolayer cells was inverted on a grass slide with 10 μL of AO/EB stain ([…]). Fluorescence was read on a Nikon ECLIPSETE2000-S fluorescence microscope.
smiles,measurement,setting,value
"CC(C=O)[C@@H]1CC[C@]2(C)CC[C@]3(C(=O)O)C(CCC4[C@@]5(C)CC[C@@H](O)C(C)(C)C5CC[C@]43C)C12 (stereo partly drawn) [Compound 2, 3α-hydroxy-19β-hydrogen-29-aldehyde-27-lupanoic acid]",IC50,"HepG-2; HepG2, 24 h",18.2 ± 1.94 µM
same,IC50,"MCF-7; MCF7, 24 h",31 ± 1.83 µM
same,IC50,"T-84; T84, 24 h",27.9 ± 0.99 µM
"CC(=O)OC1CCC2(C)C(CCC3(C)C2CCC2C4C(C(C)C=O)CCC4(C)CCC23C(=O)O)C1(C)C (stereo not drawn) [Compound 3, 3α-acetyl-19α-hydrogen-29-aldehyde-27-lupanoic acid]",IC50,"HepG-2; HepG2, 24 h",25.3 ± 1.87 µM
same,IC50,"MCF-7; MCF7, 24 h",35.4 ± 1.52 µM
same,IC50,"T-84; T84, 24 h",40.6 ± 3.64 µM
same,melting point,,200 to 201 °C
"O=C1CCC[C@@H]2[C@H]3CCCN4CCC[C@@H](CN12)[C@@H]34 [Matrine, reference compound]",IC50,"HepG-2; HepG2, CCK-8, 24 h treatment, n = 3",30.9 ± 2.28 µM
same,IC50,"MCF-7; MCF7, CCK-8, 24 h treatment, n = 3",35.5 ± 2.92 µM
same,IC50,"T-84; T84, CCK-8, 24 h treatment, n = 3",32.8 ± 2.95 µM
"CC(C=O)C1CCC2(C)CCC3(C(=O)O)C(CCC4C5(C)CCC(O)C(C)(C)C5CCC43C)C12 (stereo not drawn) [Compound 1, 3α-hydroxy-19α-hydrogen-29-aldehyde-27-lupanoic acid]",survival rate of HepG-2,HepG-2; 35 μM,9.50%
same,IC50,"HepG-2; HepG2, 24 h",17.8 ± 1.21 µM
same,IC50,"MCF-7; MCF7, 24 h",30.8 ± 1.88 µM
same,IC50,"T-84; T84, 24 h",27.9 ± 1.96 µM
same,"viability at 24 h, 35 µM",in vitro,> 90%
same,"early apoptosis rate (annexin V+/PI-, LR)",HepG-2 cells [1]; 15 μM,6.96%
same,"late apoptosis rate (annexin V+/PI+, UR)",HepG-2 cells [1]; 15 μM,4.27%
same,"late apoptosis rate (annexin V+/PI+, UR)",HepG-2 cells [1]; 20 μM,10.61%
same,"early apoptosis rate (annexin V+/PI-, LR)",HepG-2 cells [1]; 25 μM,20.05%
same,"late apoptosis rate (annexin V+/PI+, UR)",HepG-2 cells [1]; 25 μM,14.30%
same,"early apoptosis rate (annexin V+/PI-, LR)",HepG-2 cells [1]; 30 μM,23.69%
same,"late apoptosis rate (annexin V+/PI+, UR)",HepG-2 cells [1]; 30 μM,22.93%
same,"early apoptosis rate (annexin V+/PI-, LR)",HepG-2 cells [1],16.14%
same,viability at 15 µM,"HepG-2 cells [1]; Homo sapiens, HepG2, 15 μM, read-out: viable cells (annexin V-/PI-, LL)",88.7%
same,viability at 20 µM,"HepG-2 cells [1]; Homo sapiens, HepG2, 20 μM, read-out: viable cells (annexin V-/PI-, LL)",72.9%
same,viability at 25 µM,"HepG-2 cells [1]; Homo sapiens, HepG2, 25 μM, read-out: viable cells (annexin V-/PI-, LL)",64.8%
same,viability at 30 µM,"HepG-2 cells [1]; Homo sapiens, HepG2, 30 μM, read-out: viable cells (annexin V-/PI-, LL)",52%
same,ROS level,HepG-2 cells [2]; 15 μM,23.5%
same,ROS level,HepG-2 cells [2]; 30 μM,46.8%
same,"ΔΨm reduced to, of control",HepG-2 cells [3],69.1%
same,cytochrome c level in the cytosol,cytochrome c,gradually improved
same,Bax level,Bax,significant increase
same,expression of Bcl-2,Bcl-2,inhibition on the expression
same,cleavage of caspase-9,caspase-9,significantly induced cleavage
same,cleavage of caspase-3,caspase-3,significantly induced cleavage
same,apoptotic cells by Hoechst 33258 staining,HepG-2 cells [4],apoptotic cells increased gradually in a dose-dependent manner
same,apoptosis by AO/EB staining,HepG-2 cells [5],able to induce apoptosis
same,melting point,,200 to 201 °C and 201 to 202 °C
